A short description of data set [1]: Color of the solution, quality research per Chinese Pharmacopoeia 2010 Part 2. The data set is classed as physicochemical. The following applies: compliance with pharmacopoeia standard. Here is the method: (§1) Referring to the quality standard of the raw material in “Part 2 of Chinese Pharmacopoeia 2010 Edition”, the quality research on crystalline powder of Cefuroxime Sodium was conducted in Example 1˜4 and Comparative Example 1, and the results were shown as follows: […]

Data set [2] is described as follows: Abnormal toxicity, quality research per Chinese Pharmacopoeia 2010 Part 2. The settings on record: compliance with pharmacopoeia standard. Here is the method:
as §1

Data set [3] in a line: Clarity of the solution, quality research per Chinese Pharmacopoeia 2010 Part 2. In kind it is physicochemical. The settings on record: compliance with pharmacopoeia standard. Here is the method:
as §1

Data set [4] is described as follows: Bacterial endotoxin, quality research per Chinese Pharmacopoeia 2010 Part 2. The settings on record: compliance with pharmacopoeia standard. Here is the method: as §1
The nature of data set [5]: pH, quality research per Chinese Pharmacopoeia 2010 Part 2. The data set is classed as physicochemical. The following applies: crystalline powder. Here is the method: as §1
Data set [6] in a line: Flowability test, angle of repose by funnel method. The data set is classed as physicochemical. The settings on record: refined Cefuroxime Sodium prepared in Example 1. Here is the method:
In order to examine the flowability of the refined Cefuroxime Sodium prepared in Example 1, the angle of repose was measured by a funnel method. Test method: The particles were placed in a fixed funnel, and were […] freely to a horizontal plane to form a disk-shaped stacked body with a bottom radius of r, and the height of the stacked body was measured as H. The results were calculated according to the equation of tan θ=H/r and were shown in the following table: […]

The conditions of data set [7]: cited from earlier work.

The structures appear in SMILES notation. Where “and” joins values, the source holds several entries; their conditions need not be identical. Equal entries are not always repeated.

In the case of `CO/N=C(\C(=O)N[C@@H]1C(=O)N2C(C(=O)[O-])=C(COC(N)=O)CS[C@H]12)c1ccco1.[Na+]` [Example 2, Cefuroxime Sodium], in data set [1], the “Color of the solution” value is “Compliance”. Further, in data set [2], the Abnormal toxicity result is on record as “Compliance”. Further, the “Clarity of the solution” value in data set [3] is given as “Compliance”. Besides, the Bacterial endotoxin result in data set [4] is listed as “Compliance”. For the same compound, the pH entry in data set [5] was “pH = 7.5”.

`CO/N=C(\C(=O)N[C@@H]1C(=O)N2C(C(=O)[O-])=C(COC(N)=O)CS[C@H]12)c1ccco1.[Na+]` [Example 3, Cefuroxime Sodium]: the “Color of the solution” value in data set [1] was “Compliance”. Further, the Abnormal toxicity entry in data set [2] is given as “Compliance”. Further, the “Clarity of the solution” value in data set [3] is recorded as “Compliance”. Further, the Bacterial endotoxin entry in data set [4] was “Compliance”. Further, the pH entry in data set [5] was “pH = 7.4”.

Regarding `CO/N=C(\C(=O)N[C@@H]1C(=O)N2C(C(=O)[O-])=C(COC(N)=O)CS[C@H]12)c1ccco1.[Na+]` [Example 4, Cefuroxime Sodium], the “Color of the solution” value in data set [1] was “Compliance”. In data set [2], the Abnormal toxicity entry is “Compliance”. For the same compound, the “Clarity of the solution” value in data set [3] is recorded as “Compliance”. In addition, the Bacterial endotoxin entry in data set [4] was “Compliance”. The pH result in data set [5] is recorded as “pH = 7.0”.

On to `CO/N=C(\C(=O)N[C@@H]1C(=O)N2C(C(=O)[O-])=C(COC(N)=O)CS[C@H]12)c1ccco1.[Na+]` [Comparative Example 1, Cefuroxime Sodium], for which, in data set [2], the Abnormal toxicity entry was “Compliance”. Moreover, the “Clarity of the solution” value in data set [3] is listed as “Compliance”. In addition, in data set [4], the Bacterial endotoxin result was “Compliance”. Also, in data set [5], the pH result is “pH = 7.5”.

Turning to `CO/N=C(\C(=O)N[C@@H]1C(=O)N2C(C(=O)[O-])=C(COC(N)=O)CS[C@H]12)c1ccco1.[Na+]` [Example 1, Cefuroxime Sodium], in data set [1], the “Color of the solution” value is “Compliance”. Further, the Abnormal toxicity result in data set [2] is on record as “Compliance”. Moreover, the “Clarity of the solution” value in data set [3] is given as “Compliance”. Also, the Bacterial endotoxin entry in data set [4] was “Compliance”. The pH entry in data set [5] was “pH = 7.3”.

In the case of `CO/N=C(\C(=O)N[C@@H]1C(=O)N2C(C(=O)[O-])=C(COC(N)=O)CS[C@H]12)c1ccco1.[Na+]` [Cefuroxime Sodium, Sodium (6R, 7R)-7-[2-furyl (methoxyimino)acetylamino]-3-carbamoyloxymethyl-8-oxo-5-thia-1-azabicyclo [4.2.0]oct-2-ene-2-carboxylate], the “Angle of repose θ, average value” in data set [6] (average of three measurements) was determined as 26.1°. Moreover, the “Angle of repose θ” value in data set [6] (single measurements, funnel method) is 25.9° and 26.1° and 26.2°. Also, the Solubility in chloroform entry in data set [7] (chloroform) is recorded as “insoluble”. In data set [7] (ethanol), the Solubility in ethanol result was “insoluble”. Also, the Solubility in methanol entry in data set [7] (methanol) is recorded as “slightly soluble”. Also, the Solubility in water entry in data set [7] (water) is recorded as “soluble”.

Values taken from patent US20180111949A1, “NOVEL INDUSTRIAL CRYSTALLIZATION METHOD OF CEFUROXIME SODIUM AND PREPARATION THEREOF” (HAINAN LINGKANG PHARMACEUTICAL CO., LTD, priority 2016, published 2018).
